Columns and labels:
[1] = test system: KCC2 pThr1007 and NKCC1 pThr203/207/212; assay: In vivo pharmacodynamic analysis, brain; design: species or system mouse; conditions: naïve brains; 60 minutes after administration
Protocol: Male C57BL/6j wild-type mice (6 weeks old) were purchased from Charles River Laboratories Edinburgh UK. ZT-1a was dissolved in DMSO (Sigma) solution and administered by subcutaneous injection into wild type male C57BL/6 mice at doses of 0, 3, 10, 30, 50 and 100 mg/kg. 50 mg/kg Closantel (1) was injected as a comparative control. Age-matched SPAK^502A/502A knock-in mice were also used as comparative controls (Zhang et al. (2015) Human molecular genetics 24: 4545-455). Control mice were treated with an equal volume of DMSO solution. One hour after administration, mice were sacrificed by cervical dislocation, and kidney and brain tissues were rapidly dissected and snap-frozen in liquid nitrogen. The SPAK^502A/502A knock-in mouse was established and maintained under specific pathogen-free conditions at the University of Dundee (UK) as described in our recent study.
Referring to FIG. 9A and FIG. 9B, in vivo pharmacodynamic analysis of ZT-1a was performed. ZT-1a and Closantel were administered via subcutaneous injection at the indicated doses. Brain (FIG. 9A) and kidney (FIG. 9B) tissues were collected, and endogenous proteins were subjected to immunoblot probed with SPAK, NKCC1 and NCC phospho-specific antibodies.

[2] = biological target: T1, human SPAK 452-547(end) (Homo sapiens, UniProt Q9UEW8); assay: Fluorescence polarization, SPAK-WNK peptide interaction; assay type: binding; conditions: for IC50: Lumio-Green-labelled WNK peptide 10 nM, read-out: IC50, concentration-dependent decrease in fluorescence polarization; for disruption of binding between WNK4 and the SPAK CCT domain: fluorescence polarization
T1 construct: Purified human SPAK 452-547(end); made in house; host or cells: E. coli
Protocol: Fluorescence polarization measurements were performed at 25° C. with purified SPAK proteins in 50 mM Tris/HCl, pH 7.5, 150 mM NaCl and 2 mM DTT. The concentration of SPAK proteins was determined by measuring their absorbance at 280 nm and calculated using the molar absorption coefficient determined by the ProtParam Online tool (Gasteiger et al., 2001). All peptides ([…] [EP4543] and […] [EP4544]; SEQ ID NO:2 and SEQ ID NO:3, respectively) contained an N-terminal linker required for conjugating to the Lumio Green fluorophore ([…]; SEQ ID NO:4) and were initially re-suspended in 50 mM ammonium bicarbonate, pH 8. Peptide labelling was achieved by incubating […] of each peptide in a 0.5 ml reaction mixture of 20 μM Lumio Green in 25 mM Tris/HCl, pH 7.5, 200 mM NaCl and 5 mM 2-mercaptoethanol. Reactions were left to proceed in the dark for 2 h. The peptides were dialysed for 4 h into 25 mM Tris/HCl, pH 7.5, 200 mM NaCl and 5 mM 2-mercaptoethanol using a Micro DispoDIALYZER with a 100 Da molecular-mass cut-off (Harvard Apparatus), and then for another 12 h with changed buffer. For fluorescence polarization, mixtures were set up containing the indicated concentration of protein, 10 nM Lumio-Green-labelled peptide in a final volume of 30 μl. All individual bindings were performed in duplicate with at least 12 data points per curve. Fluorescence polarization was measured using a BMG PheraStar plate reader, with an excitation wavelength of 485 nm and an emission wavelength of 538 nm, and measurements were corrected to the fluorescent probe alone. Data analysis and graphing were then performed in GraphPad Prism7; a one-site specific binding model was assumed (Y=Bmax*X/[Kd+X]) and the fitted dissociation constant computed. All experimental bindings were repeated at least twice.
Referring to FIG. 5A, analysis of SPAK-WNK interaction by fluorescence polarization is shown. Purified human SPAK 452-547(end) and human SPAK 452-547 with L491A (equivalent to L502 in mouse) were diluted appropriately and mixed at a 1:1 volume ratio with 20 nM Lumino-Green-labelled WNK peptide (RFQV or AFQV) to the concentration stated in the Figure (with the final peptide concentration consistent at 10 nM), and fluorescent polarization measurements were made. Binding curves, assuming one-site-specific binding, were then generated with Prism6 using milli-polarization (mP) units.

[3] = test system: mouse model of ischemic stroke; assay: Infarct volume and hemispheric swelling after transient MCAO; assay type: in vivo
Text: Under an operating microscope, the left common carotid artery was exposed through a midline incision. […] The ECA was dissected further distally and permanently ligated. The internal carotid artery (ICA) was isolated and carefully separated from the adjacent vagus nerve. A 12 mm length of silicon-coated nylon filament (size 6-0, native diameter 0.11 mm; diameter with coating 0.21+/−0.02 mm; coating length 5-6 mm; Doccol Corporation, Sharon, Mass.) was introduced into the ECA lumen through a puncture. The silk suture around the ECA stump was tightened around the intraluminal nylon suture to prevent bleeding. The nylon suture was then gently advanced from the ECA to the ICA lumen until mild resistance was felt (˜9 mm). For reperfusion, the suture was withdrawn 50 min after MCAO to restore blood flow. Body temperature was maintained for the duration of the experiment between 36.5° C.-37° C. with a small animal heating pad (Kent Scientific).
At 24 hours reperfusion, mice were anesthetized with 5% isoflurane and then decapitated. Coronal brain tissue slices (2 mm) were stained for 20 minutes at 37° C. with 1% 2,3,5-triphenyltetrazolium chloride monohydrate (TTC; Sigma, St Louis, Mo.) in PBS solution. […] The extent of hemispheric swelling was calculated using the following equation: swelling (% contralateral side)=[(volume of ipsilateral hemisphere−volume of contralateral hemisphere)/volume of contralateral hemisphere]×100 (Bhuiyan et al. (2017) Journal of cerebral blood flow and metabolism: official journal of the International Society of Cerebral Blood Flow and Metabolism 37: 2780-2794).
Referring to FIG. 11A, an experimental design of ischemic stroke study is shown. Vehicle or ZT-1a is administered at 3 hrs and 8 hrs post-MCAO.
Referring to FIG. 11B, representative images and quantification of infarct volume and hemispheric swelling in TTC-stained coronal sections of mouse brains 24 hrs post-MCAO are shown. Vehicle (DMSO, 2 ml/kg) or ZT-1a (2.5 or 5.0 mg/kg) were administered with an initial half dose at 3 hrs and the second half dose at 8 hr reperfusion via intra-peritoneal injection (i.p.). Data are mean±SD, n=6-12 per group (male). * p<0.05.

Row | SMILES | effect on KCC2 (pThr1007) or NKCC1 (pThr203/207/212) phosphorylation [1] | IC50 [2] | disruption of binding between WNK4 and the SPAK CCT domain [2] | infarct volume ([3]; 5 mg/kg i.p., post-stroke from 3 hr reperfusion, 24 hrs post-MCAO, mean±SD) | decrease of infarct volume ([3]; 5 mg/kg i.p., post-stroke from 3 hr reperfusion, 24 hrs post-MCAO, vs vehicle) | reduction of cerebral hemispheric swelling ([3]; 2.5 or 5 mg/kg, 24 hrs post-MCAO, vs vehicle) | effect on infarct volume and hemispheric swelling ([3]; 0.1 mg/kg dose) | effect on infarct volume and hemispheric swelling ([3]; 1.0 or 2.5 mg/kg at 3 hr and at 8 hr reperfusion)
1 | Cc1cc(C(C#N)c2ccc(Cl)cc2)c(Cl)cc1NC(=O)c1cc(Cl)ccc1O (centres unmarked) [ZT-1a, 5-chloro-N-(5-chloro-4-((4-chlorophenyl)(cyano)methyl)-2-methylphenyl)-2-hydroxy-benzamide] | neither drug reduced | 326 µM | did not disrupt | 50.4±27.0 mm^3 | ~35% | 36 to 50% |  | 
2 | Cc1cc(C(C#N)c2ccc(Cl)cc2)c(Cl)cc1NC(=O)c1cc(I)cc(I)c1O (centres unmarked) [Closantel] | neither drug reduced | > 1000 µM | did not disrupt |  |  |  | ineffective | dose-dependently reduced
